Data reported in paper PMC12873548, “D-amino acid substitution and cyclization enhance the stability and antimicrobial activity of arginine-rich peptides” (Microbiology, 2026).
Values after ≈ are worked out from the molar mass of the structure shown. Residues, ends and D or L forms follow the SMILES beside them.

Columns and labels:
[1] = target: T1, Sequencing Grade Modified Trypsin (Sus scrofa, UniProt P00761); test: Stability with trypsin by LC-MS; type: in vitro ADME; conditions: 5 µM SGMT trypsin, 50 mM Tris-HCl, 1 mM CaCl2, pH 7.6, 24 h, 37 °C; read-out LC-MS (ESI)
T1 construct: purchased Promega
T1 sequence (P00761 9-231): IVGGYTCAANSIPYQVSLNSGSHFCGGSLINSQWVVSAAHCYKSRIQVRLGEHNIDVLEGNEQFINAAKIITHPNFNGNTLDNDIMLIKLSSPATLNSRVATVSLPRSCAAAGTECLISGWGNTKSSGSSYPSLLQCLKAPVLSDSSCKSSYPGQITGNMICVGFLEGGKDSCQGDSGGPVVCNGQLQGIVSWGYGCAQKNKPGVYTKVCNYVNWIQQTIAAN
Experimental: (§1) The antimicrobial activity and structural stability of arginine-rich peptides were evaluated in the presence of human serum (20% and 50 %) and 5 µM Sequencing Grade Modified Trypsin (SGMT, Promega). Briefly, fresh human blood was collected in EDTA tubes and allowed to clot at room temperature for 1 h. Serum was then collected following centrifugation at 2,000 r.p.m. for 10 min at 4 °C. Peptides were incubated with 20%, 50% human serum and 5 µM SGMT in 50 mM Tris-HCl buffer (1 mM CaCl₂, pH 7.6) for 24 h at 37 °C. After the incubation period, the solutions were further incubated with E. coli (ATCC 25922 and O157:H7), P. aeruginosa (PA01, NCTC13437) and S. aureus (ATCC12600), and the MIC was assessed as described in the ‘Antibacterial assessment’ section. Additionally, the samples were analysed using electrospray ionization MS to monitor structural changes based on the molecular weight of the peptides.

[2] = system: S. aureus (12600); type: cell-based, Staphylococcus aureus
Experimental: (§2) The MIC of arginine-based peptides was assessed using the microbroth dilution approach. Our in vitro screening included a panel of Gram-negative bacteria, Escherichia coli (ATCC 25922 and enterohaemorrhagic O157:H7) and Pseudomonas aeruginosa (PA01 and the drug-resistant strain NCTC 13437), and Gram-positive bacteria (Staphylococcus aureus ATCC 12600). Five-millilitre overnight cultures in Lysogeny broth, prepared from single isolated colonies, were diluted to 5×10^6 c.f.u. ml^−1 mid-log phase in Mueller–Hinton (MH) broth. Next, peptide concentrations (0 to 1 mM) were serially diluted twofold in 96-well plates and incubated overnight at 37 °C with the tested bacterial strains. In each case, the MIC was determined as the lowest peptide concentration at which no detectable bacterial growth was observed, employing an absorbance-based assay using a Tecan Spark® multimode plate reader. Subsequently, 10 µl aliquots from each peptide dilution were transferred to MH agar (1.5%) plates to determine the minimum bactericidal concentration (MBC) which was assessed by establishing at which concentration no visible growth of bacteria (assessed via colony formation) on the plate was observed.
as §1

[3] = system: S. aureus (ATCC12600); type: cell-based, Staphylococcus aureus; conditions: S. aureus ATCC12600
[4] = system: P. aeruginosa (NCTC13437); type: cell-based, Pseudomonas aeruginosa; conditions: P. aeruginosa NCTC13437 (drug-resistant); 10 µl aliquots plated on MH agar, no visible colonies
Experimental: as §2

[5] = system: P. aeruginosa (PA01); type: cell-based, Pseudomonas aeruginosa; conditions: P. aeruginosa PA01
Experimental: as §2

[6] = system: E. coli (25922); type: cell-based, Escherichia coli
Experimental: as §2, §1

[7] = system: S. aureus ATCC 12600; test: Membrane integrity, PI uptake; type: cell-based, Staphylococcus aureus; conditions: S. aureus ATCC 12600, 5 µg ml−1 PI, 1 h
Experimental: Propidium iodide (PI) uptake was used to assess the permeabilization of the bacterial membrane upon incubation with peptides. E. coli and S. aureus cells, adjusted to an OD600 of 0.5, were placed into a 96-well plate containing 5 mM HEPES buffer (pH 7.4, supplemented with 5 mM glucose) and incubated with 5 µg ml^−1 PI for 15 min. Afterwards, different peptide concentrations were added, and PI uptake was rapidly measured every 10 min over a 1 h period using a Tecan Spark® microplate reader (λex=515 nm, λem=620 nm).

[8] = system: P. aeruginosa (PA01); type: cell-based, Pseudomonas aeruginosa
Experimental: as §2, §1

[9] = system: S. aureus; test: Intracellular ROS, DCFH-DA; type: cell-based, Staphylococcus aureus; conditions: peptides at MIC, 1/2× MIC, 1/4× MIC, 4 h, 37 °C
Experimental: Total reactive oxygen species (ROS) was measured using an oxidation-sensitive fluorescent dye, 2′,7′-dichlorodihydrofluorescein diacetate (DCFH-DA). For this assay, E. coli and S. aureus cultures were adjusted to an OD600 of 0.3 in MH broth and exposed to peptides at MIC, 1/2× MIC and 1/4× MIC, or to positive control (5 mM H2O2) for 4 h at 37 °C. Cells were centrifuged at 4,000 r.p.m. for 10 min at 4 °C and resuspended in PBS containing 10 µM DCFH-DA. The suspension was incubated under the same conditions for 30 min. Finally, cells were washed twice with PBS, and 150 µl aliquots were transferred to 96-well plates. Oxidized DCF products were detected using a Tecan Spark® microplate reader with excitation at 485 nm and emission at 530 nm. Additionally, 10 µl of E. coli cells incubated with D-R4F4 at MIC, 1/2×MIC and 1/4×MIC was collected for imaging using an All-in-One Fluorescence Microscope (Keyence, Japan).

[10] = control without serum or trypsin
[11] = peptide incubated with 5 µM SGMT trypsin in 50 mM Tris-HCl, 1 mM CaCl2, pH 7.6, 24 h at 37 °C before MIC
[12] = peptide incubated with 20% human serum 24 h at 37 °C before MIC
[13] = peptide incubated with 50% human serum 24 h at 37 °C before MIC
[14] = 10 µl aliquots plated on MH agar, no visible colonies
[15] = MH broth, 5×10^6 cells, 24 h, 37 °C, absorbance 600 nm, triplicate

**Q.** For N=C(N)NCCC[C@@H]1NC(=O)[C@H](CCCNC(=N)N)NC(=O)[C@H](CCCNC(=N)N)NC(=O)[C@H](Cc2ccccc2)NC(=O)[C@H](Cc2ccccc2)NC(=O)[C@H](Cc2ccccc2)NC(=O)[C@H](Cc2ccccc2)NC(=O)[C@H](CCCNC(=N)N)NC1=O [CP-R4F4] (cyclo(RRRRFFFF)), which “Stability with trypsin (LC chromatogram and mass spectrum)” value [1] is on record?
**A.** appeared at the same retention time in both the absence and presence of proteases

**Q.** And the “MIC, Control” value [2, 10]?
**A.** 62.5 µM (≈ 75.8 µg/mL)

**Q.** What about the “MIC, Trypsin” value [2, 11] of the same compound?
**A.** 62.5 µM (≈ 75.8 µg/mL)

**Q.** What about the “MIC, 20% human serum” value [2, 12] of the same compound?
**A.** 62.5 µM (≈ 75.8 µg/mL)

**Q.** And the “MIC, 50% human serum” value [2, 13]?
**A.** 250 µM (≈ 303 µg/mL)

**Q.** What about the MBC [3, 14] of the same compound?
**A.** 125 µM (≈ 152 µg/mL)

**Q.** And the MIC [3, 15]?
**A.** 62.5 µM (≈ 75.8 µg/mL)

**Q.** What about the MBC [4] of the same compound?
**A.** 250 µM (≈ 303 µg/mL)

**Q.** What about the MBC [5, 14] of the same compound?
**A.** 31.2 µM (≈ 37.9 µg/mL)

**Q.** What about the MIC [5, 15] of the same compound?
**A.** 31.2 µM (≈ 37.9 µg/mL)

**Q.** And the “MIC, Control” value [6, 10]?
**A.** 31.25 µM (≈ 37.9 µg/mL)

**Q.** And the “MIC, Trypsin” value [6, 11]?
**A.** 31.25 µM (≈ 37.9 µg/mL)

**Q.** What about the “MIC, 20% human serum” value [6, 12] of the same compound?
**A.** 31.25 µM (≈ 37.9 µg/mL)

**Q.** What about the “MIC, 50% human serum” value [6, 13] of the same compound?
**A.** 125 µM (≈ 152 µg/mL)

**Q.** What about the “PI uptake, membrane integrity” value [7] of the same compound?
**A.** membrane-disruptive activity

**Q.** What about the “MIC, Control” value [8, 10] of the same compound?
**A.** 31.25 µM (≈ 37.9 µg/mL)

**Q.** And the “MIC, Trypsin” value [8, 11]?
**A.** 31.25 µM (≈ 37.9 µg/mL)

**Q.** And the “MIC, 20% human serum” value [8, 12]?
**A.** 31.25 µM (≈ 37.9 µg/mL)

**Q.** And the “MIC, 50% human serum” value [8, 13]?
**A.** 125 µM (≈ 152 µg/mL)

**Q.** And the “Intracellular ROS levels” value [9]?
**A.** highest modulation of ROS levels
